In PubChem BioAssay (NCI) one finds GI50 and TGI data, which are given here for ten compounds.

Test systems include NCI-H522 lung; A549 NSCLC; SW-620 colon; MALME-3M melanoma; NCI-H23 lung; TK-10 renal; SNB-75 CNS; SR leukemia.
Common to all, as to assay: NCI anticancer screen, dose series, 48 h

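Where inhibition never reached the appropriate level, the endpoint shown equals the highest concentration tested. Otherwise, values were interpolated linearly from a five-concentration, 48-hour dose response in 96-well plates. The concentration for 50% growth inhibition is given as GI50. TGI denotes the concentration required for complete inhibition of growth.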

For the compound `CCCN(CCC)c1ccc(C=O)c(Cl)c1`, the GI50 with NCI-H522 lung was 25.2 µM; with A549 NSCLC, 7.66 µM; in the assay with SW-620 colon, 20.9 µM; in the assay with MALME-3M melanoma it was 23.4 µM; in the assay on NCI-H23 lung it was 25.6 µM; in the assay with TK-10 renal it was 0.262 µM. For the same compound, in the assay on SNB-75 CNS, the GI50 is 16.5 µM. Moreover, the TGI is 82.2 µM in the assay with NCI-H522 lung; over 100 µM in the assay with A549 NSCLC; over 100 µM in the assay on SW-620 colon; over 69 µM in the assay on MALME-3M melanoma; over 100 µM in the assay with NCI-H23 lung; 1.17 µM in the assay on TK-10 renal. The compound also gave a TGI in the assay on SNB-75 CNS of 55.8 µM.

In the case of `CC(C)(C)NCC(O)COc1c(Br)c(Br)c(Br)c2c1OC(C)(C)C2` (stereo not drawn), the GI50 in the assay with NCI-H522 lung is 1.99 µM; in the assay with SR leukemia, 1.66 µM; in the assay with A549 NSCLC, 2.06 µM; in the assay on SW-620 colon it was 1.7 µM; with MALME-3M melanoma, 1.71 µM; in the assay on TK-10 renal, 2.04 µM. The TGI in the assay with NCI-H522 lung amounted to 3.81 µM; in the assay with SR leukemia, 3.29 µM; in the assay with A549 NSCLC, 3.84 µM; with SW-620 colon, 3.1 µM; in the assay on MALME-3M melanoma it was 3.24 µM; with TK-10 renal it was 3.52 µM.

For `O=C1/C(=C\c2ccco2)Oc2ccccc21`, the TGI with NCI-H522 lung, in the assay with SR leukemia, with A549 NSCLC, with SW-620 colon, in the assay on NCI-H23 lung and with TK-10 renal was over 100 µM in each case. In the assay with SNB-75 CNS, this compound registered a TGI of over 100 µM.

Turning to `O=C(CC1(O)C(=O)Nc2ccc(F)cc21)c1ccc(C(=O)NCC2CCC3(CC2)OOC2(CCCCC2)OO3)cc1` (stereo not drawn), the GI50 in the assay with NCI-H522 lung was 1.21 µM; in the assay with A549 NSCLC it was 2.49 µM; in the assay with SW-620 colon, 7.72 µM; in the assay with MALME-3M melanoma, 2.21 µM; with NCI-H23 lung it was 3.62 µM; in the assay with TK-10 renal, 2.03 µM. The TGI amounted to 2.71 µM with NCI-H522 lung; 5.81 µM in the assay with A549 NSCLC; 27.4 µM in the assay with SW-620 colon; 5.13 µM in the assay with MALME-3M melanoma; 19.9 µM in the assay on NCI-H23 lung; 4.36 µM in the assay with TK-10 renal.

As for `COc1ccc(-c2c(C#N)c(N)nc(N3CCOCC3)c2C#N)cc1`, the GI50 was 8.65 µM in the assay on NCI-H522 lung; 29.4 µM in the assay with A549 NSCLC; 50.3 µM with SW-620 colon; 11.7 µM in the assay with MALME-3M melanoma; 19.6 µM with TK-10 renal; 13.5 µM in the assay on SNB-75 CNS. Besides, the TGI in the assay on NCI-H522 lung was 43.6 µM; in the assay with A549 NSCLC it was over 100 µM; in the assay with SW-620 colon, over 100 µM; with MALME-3M melanoma, 54.7 µM; in the assay with TK-10 renal it was 86.1 µM; in the assay with SNB-75 CNS, 60.7 µM.

For the compound `C=C(CN1CCc2c([nH]c3ccccc23)C1)c1ccc(C(=O)Nc2ccccc2N)cc1`, the GI50 with NCI-H522 lung was 4.13 µM; in the assay on SR leukemia, 0.622 µM; in the assay with A549 NSCLC, 4.85 µM; in the assay on SW-620 colon, 3.89 µM; in the assay on NCI-H23 lung it was 3.73 µM; with TK-10 renal, 2.6 µM. For the same compound, the TGI worked out at 11.5 µM in the assay on NCI-H522 lung; 50 µM in the assay on SR leukemia; 32 µM in the assay on A549 NSCLC; 28.5 µM in the assay on SW-620 colon; 19.9 µM with NCI-H23 lung; 9.58 µM with TK-10 renal.

On to `CC(=O)/C=C/c1ccc(Nc2c3ccccc3nc3occ(Cl)c23)cc1`, for which the GI50 with NCI-H522 lung is 3.43 µM; in the assay with A549 NSCLC, 4.04 µM; with MALME-3M melanoma, 6.48 µM; in the assay with NCI-H23 lung, 3.1 µM; in the assay on TK-10 renal it was 3.87 µM; in the assay on SNB-75 CNS it was 18.3 µM. In addition, the TGI in the assay with NCI-H522 lung was 16.1 µM; with A549 NSCLC, 32.5 µM; in the assay on MALME-3M melanoma, 24.9 µM; in the assay with NCI-H23 lung it was 13.2 µM; in the assay with TK-10 renal, 24.8 µM; with SNB-75 CNS, 59.4 µM.

For `CO[C@H]1/C=C/O[C@@]2(C)Oc3c(C)c(O)c4c(O)c(c(/C=N/N5CCN(C)CC5)c(O)c4c3C2=O)NC(=O)/C(C)=C\C=C\[C@H](C)[C@H](O)[C@@H](C)[C@@H](O)[C@@H](C)[C@H](OC(C)=O)[C@@H]1C`, the TGI was 52.6 µM in the assay on SR leukemia; over 100 µM with A549 NSCLC; over 100 µM with SW-620 colon; over 100 µM in the assay on MALME-3M melanoma; over 100 µM with TK-10 renal.

As to `CCC(=O)N/S(=N/S(=O)(=O)c1ccccc1)C(Cl)(Cl)Cl` (stereo not drawn), the TGI in the assay with SR leukemia, in the assay on A549 NSCLC, in the assay with SW-620 colon, in the assay on MALME-3M melanoma, in the assay with NCI-H23 lung and with TK-10 renal was over 100 µM each time. In the assay with SNB-75 CNS, this compound yielded a TGI of over 100 µM.

Regarding `CC(/C=C/C(O)=C1/C(=O)CNC1=O)=C\[C@@H](C)[C@H]1O[C@@]2(C)O[C@H](C(=O)[C@@H]3O[C@@]32C)[C@@H]1C`, the TGI in the assay with SW-620 colon was over 100 µM; with MALME-3M melanoma it was 38 µM; in the assay with NCI-H23 lung, 59 µM; in the assay with TK-10 renal, 44.2 µM; in the assay with SNB-75 CNS, 63.1 µM.
